Data: ChEMBL document CHEMBL1130954, “Design and synthesis of analogs of vitamin E: antiproliferative activity against human breast adenocarcinoma cells” (Bioorg Med Chem Lett, 1998)

System: MCF7
Test: Compound was tested for antiproliferative activity against human breast cancer cell line MCF-7 in MTT assay
Format: functional, cell-based

SMILES	IC50 [µM]
Cc1c(C)c2c(c(C)c1OC(=O)CCC(=O)O)CC[C@@](C)(CCC[C@H](C)CCC[C@H](C)CCCC(C)C)O2 [(+)-ALPHA-TOCOPHERYL SUCCINATE]	> 368
Cc1c(C)c2c(c(C)c1O)CCC(C)(C(=O)O)O2 (centres undefined) [TROLOX]	1460
CC(=O)Oc1c(C)c(C)c2c(c1C)CC[C@@](C)(CCC[C@H](C)CCC[C@H](C)CCCC(C)C)O2	> 500
Cc1c(C)c2c(c(C)c1O)CC[C@@](C)(CCC[C@H](C)CCC[C@H](C)CCCC(C)C)O2 [ALPHA-TOCOPHEROL]	329

Now those with a lower IC50, led by results:

IC50 [µM]	SMILES
194	Cc1c(C)c2c(c(C)c1OC(=O)[C@@H](N)CCCCN)CCC(C)(CO)O2 (some centres undefined)
22	CCCCCOCC1(C)CCc2c(C)c(OC(=O)[C@@H](N)CCCCN)c(C)c(C)c2O1 (some centres undefined)
15	CCCCC(=O)OCC1(C)CCc2c(C)c(OC(=O)[C@@H](N)CCCCN)c(C)c(C)c2O1 (some centres undefined)
12	Cc1c(C)c2c(c(C)c1OC(=O)[C@@H](N)CCCCN)CC[C@@](C)(CCC[C@H](C)CCC[C@H](C)CCCC(C)C)O2
4	Cc1c(C)c2c(c(C)c1OC(=O)[C@@H](N)CCCCN)CCC(C)(COC(=O)CCC(C)[C@H]1CC[C@H]3[C@@H]4[C@H](O)C[C@@H]5C[C@H](O)CC[C@]5(C)[C@H]4C[C@H](O)[C@]13C)O2 (some centres undefined)
